Measurements: paper PMC2765255 (Journal of medicinal chemistry, 2009)
Counter-ions that a name gives are not always drawn.

How the values were obtained:
S. aureus = conditions: mice treated with 1, compared to control group; cited from earlier work
[1] = biological target: S. aureus CrtM (dehydrosqualene synthase) (Staphylococcus aureus, UniProt A9JQL9); assay: CrtM enzyme inhibition assay; format: biochemical
[2] = biological target: human squalene synthase (SQS) (Homo sapiens, UniProt P37268); format: biochemical; conditions: experimental data
Sequence of human squalene synthase (SQS) (P37268 31-370): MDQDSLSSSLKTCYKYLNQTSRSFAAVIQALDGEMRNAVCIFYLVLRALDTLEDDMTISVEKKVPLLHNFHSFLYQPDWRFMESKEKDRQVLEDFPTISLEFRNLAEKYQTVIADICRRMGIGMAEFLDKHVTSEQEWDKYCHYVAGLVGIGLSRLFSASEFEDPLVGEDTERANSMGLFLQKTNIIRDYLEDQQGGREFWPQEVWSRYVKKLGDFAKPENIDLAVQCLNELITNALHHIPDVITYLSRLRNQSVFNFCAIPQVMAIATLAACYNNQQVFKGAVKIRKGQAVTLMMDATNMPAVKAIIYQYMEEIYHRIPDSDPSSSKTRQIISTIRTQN

[3] = test system: STX biosynthesis in S. aureus; assay: Staphyloxanthin biosynthesis inhibition assay; format: cell-based; conditions: Staphylococcus aureus, 72 h, read-out: staphyloxanthin IC50

Sequence of S. aureus CrtM (dehydrosqualene synthase) (A9JQL9 whole entry): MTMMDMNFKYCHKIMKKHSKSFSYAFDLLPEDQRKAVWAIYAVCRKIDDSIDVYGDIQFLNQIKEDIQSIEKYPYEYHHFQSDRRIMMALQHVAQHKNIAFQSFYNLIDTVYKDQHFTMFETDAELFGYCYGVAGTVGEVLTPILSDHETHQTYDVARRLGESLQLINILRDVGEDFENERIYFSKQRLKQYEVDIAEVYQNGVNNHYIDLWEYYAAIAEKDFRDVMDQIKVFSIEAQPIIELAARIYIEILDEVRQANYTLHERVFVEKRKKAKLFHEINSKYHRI

## O=P([O-])([O-])C(CCCc1cccc(Oc2ccccc2)c1)S(=O)(=O)[O-].[K+].[K+].[K+] (stereo not shown) [Compound 1, 1-Phosphono-4-(3-phenoxyphenyl)butylsulfonic Acid Tripotassium Salt]
S. aureus
  bacterial counts in kidneys reduced: 98%

## O=P([O-])([O-])C(CCCc1ccc(-c2ccc(C(F)(F)F)cc2)cc1)P(=O)([O-])[O-].[K+].[K+].[K+].[K+] [Compound 3]
[1]
  IC50: 0.182 µM
[2]
  pIC50(CrtM) – pIC50(hSQS): −1.86 M

## O=P([O-])([O-])C(CCCc1cccc(Oc2ccc(F)cc2)c1)S(=O)(=O)[O-].[K+].[K+].[K+] (stereo not shown) [Compound 5, 1-Phosphono-4-[3-(4-fluorophenoxy)phenyl]butylsulfonic Acid Tripotassium Salt]
[1]
  as active as 1 in CrtM inhibition: ~4 ×

## CCCc1ccc(Oc2cccc(CCCC(P(=O)([O-])[O-])S(=O)(=O)[O-])c2)cc1.[K+].[K+].[K+] (stereo not shown) [Compound 6, 1-Phosphono-4-[3-(4-propylphenoxy)phenyl]butylsulfonic Acid Tripotassium Salt]
[1]
  as active as 1 in CrtM inhibition: ~4 ×

## O=P([O-])([O-])C(CCCc1cccc(Oc2ccccc2Cc2ccccc2)c1)S(=O)(=O)[O-].[K+].[K+].[K+] (stereo not shown) [Compound 8, 1-Phosphono-4-[3-(2-benzylphenoxy)phenyl]butylsulfonic Acid Tripotassium Salt]
[1]
  less active than 1 in CrtM inhibition: ≈ 5 ×

## O=P([O-])([O-])C(Cc1cccc(Oc2ccccc2)c1)S(=O)(=O)[O-].[K+].[K+].[K+] (stereo not shown) [Compound 14, 1-Phosphono-2-(3-phenoxyphenyl)ethylsulfonic Acid Tripotassium Salt]
[2]
  pIC50(CrtM) – pIC50(hSQS): −2.66 M

## O=P([O-])([O-])C(CCc1cccc(Oc2ccccc2)c1)S(=O)(=O)[O-].[K+].[K+].[K+] (stereo not shown) [Compound 15, 1-Phosphono-3-(3-phenoxyphenyl)propylsulfonic Acid Tripotassium Salt]
[2]
  pIC50(CrtM) – pIC50(hSQS): −2.96 M

## O=P(O)(O)C(CCCc1cccc(Oc2ccc(O)cc2)c1)S(=O)(=O)O (stereo not shown) [Compound 27, 1-Phosphono-4-[3-(4-hydroxyphenoxy)phenyl]butylsulfonic Acid Tripotassium Salt]
[3]
  IC50: 6.8 µM

## O=P([O-])([O-])[C@H](CCCc1cccc(Oc2ccccc2)c1)S(=O)(=O)[O-].[K+].[K+].[K+] [Compound (S)-1, (1S)-1-Phosphono-4-(3-phenoxyphenyl)butylsulfonic Acid Tripotassium Salt]
[1]; fold
  more active than its (R)-enantiomer in CrtM inhibition: ~30 ×
